Assay [1] relates to subject diagnosed with a sinus infection. In words: Treatment of sinusitis in a subject. The assay is classed as in vivo. The settings on record: nasal spray device described herein, effective dose 2× daily in each naris. The text has this: A subject is admitted to a clinic for nasal congestion, nasal inflammation, facial pain (e.g., pain around the eyes, cheeks, nose and forehead). The subject is diagnosed with a sinus infection. The subject is prescribed a beclomethasone dipropionate composition in a nasal spray device described herein. The subject administers the nasal spray in an effective dose 2× daily in each naris. The nasal spray is characterized by a spray containing a D50 of about 15 μm to about 24 μm, a D90 of from about 30 μm to about 50 μm and where less than about 3% of the droplets in the plume of a spray have a size of less than about 10 μm.

For assay [2], the system named is subject diagnosed with allergic rhinitis. Briefly: Treatment of allergic rhinitis in a subject. The class given is in vivo. The note with it: nasal spray device described herein, effective dose 1× daily in each naris. The text has this:
A subject is admitted to a clinic for nasal congestion, sneezing, itchy eyes, and watery eyes. The subject is diagnosed with allergic rhinitis. The subject is prescribed a fluticasone propionate composition in a nasal spray device described herein. The subject administers the nasal spray in an effective dose 1× daily in each naris. The nasal spray is characterized by a spray containing a D50 of about 15 μm to about 24 μm, a D90 of from about 30 μm to about 50 μm, and where less than about 3% of the droplets in the plume of a spray have a size of less than about 10 μm.

From patent publication US20240423907A1, “Improved Nasal Administration of Pharmaceutical Formulations” (Cyrano Therapeutics, Inc., priority 2022, published 2024) come the findings set out here.

For `CCC(=O)OCC(=O)[C@@]1(OC(=O)CC)[C@@H](C)C[C@H]2[C@@H]3CCC4=CC(=O)C=C[C@]4(C)[C@@]3(Cl)[C@@H](O)C[C@@]21C` [beclomethasone dipropionate], in assay [1], the “symptoms of the sinus infection (pain, nasal inflammation and congestion) after administration” value is recorded as “reduced symptoms”.
For `CCC(=O)O[C@]1(C(=O)SCF)[C@H](C)C[C@H]2[C@@H]3C[C@H](F)C4=CC(=O)C=C[C@]4(C)[C@@]3(F)[C@@H](O)C[C@@]21C` [fluticasone propionate], in assay [2], the “symptoms of allergic rhinitis (sneezing, itchy eyes, nasal congestion, watery eyes) after administration” value was “reduced symptoms”.
